{"source": "ChEMBL document CHEMBL1149779", "about": "“Synthesis, characterization and in vitro release studies of a new acetazolamide-HP-beta-CD-TEA inclusion complex” (Eur J Med Chem, 2008)", "key": {"[1]": {"test": "Permeability across rabbit cornea", "format": "ADME, tissue-based, Oryctolagus cuniculus"}, "physchem [2]": {"test": "physchem", "conditions": "NaOH-NaHCO3 buffer, pH 9.57", "description": "Solubility in NaOH-NaHCO3 buffer at pH 9.57 in presence of 0.0226 mol/l hydroxypropyl-beta-cyclodextrin"}, "physchem [3]": {"test": "physchem", "conditions": "water", "description": "Solubility in water in presence of 0.0151 mol/l hydroxypropyl-beta-cyclodextrin"}, "physchem [4]": {"test": "physchem", "conditions": "NaOH-NaHCO3 buffer, pH 9.57", "remark": "listed apart in the source", "description": "Solubility in NaOH-NaHCO3 buffer at pH 9.57 in presence of 0.0755 mol/l hydroxypropyl-beta-cyclodextrin"}, "physchem [5]": {"test": "physchem", "conditions": "water", "remark": "listed apart in the source", "description": "Solubility in water in presence of 0.0604 mol/l hydroxypropyl-beta-cyclodextrin"}, "physchem [6]": {"test": "physchem", "conditions": "NaOH-NaHCO3 buffer, pH 9.57", "remark": "listed apart in the source", "description": "Solubility in NaOH-NaHCO3 buffer at pH 9.57 in presence of 0.1660 mol/l hydroxypropyl-beta-cyclodextrin"}, "physchem [7]": {"test": "physchem", "conditions": "citric acid-Na2HPO4 buffer, pH 4.12", "description": "Solubility in citric acid-Na2HPO4 buffer at pH 4.12 in presence of 0.1660mol/l hydroxypropyl-beta-cyclodextrin"}, "physchem [8]": {"test": "physchem", "conditions": "NaOH-NaHCO3 buffer, pH 9.57", "remark": "listed apart in the source", "description": "Solubility in NaOH-NaHCO3 buffer at pH 9.57 in presence of 0.1132 mol/l hydroxypropyl-beta-cyclodextrin"}, "physchem [9]": {"test": "physchem", "conditions": "NaOH-NaHCO3 buffer, pH 9.57", "remark": "listed apart in the source", "description": "Solubility in NaOH-NaHCO3 buffer at pH 9.57 in presence of 0.0604 mol/l hydroxypropyl-beta-cyclodextrin"}, "physchem [10]": {"test": "physchem", "conditions": "NaOH-NaHCO3 buffer, pH 9.57", "remark": "listed apart in the source", "description": "Solubility in NaOH-NaHCO3 buffer at pH 9.57 in presence of 0.0302 mol/l hydroxypropyl-beta-cyclodextrin"}, "physchem [11]": {"test": "physchem", "conditions": "NaOH-NaHCO3 buffer, pH 9.57", "remark": "listed apart in the source", "description": "Solubility in NaOH-NaHCO3 buffer at pH 9.57 in presence of 0.2 M hydroxypropyl-beta-cyclodextrin"}, "physchem [12]": {"test": "physchem", "conditions": "citric acid-Na2HPO4 buffer, pH 4.12", "remark": "listed apart in the source", "description": "Solubility in citric acid-Na2HPO4 buffer at pH 4.12 in presence of 0.0226 mol/l hydroxypropyl-beta-cyclodextrin"}, "physchem [13]": {"test": "physchem", "conditions": "water", "remark": "listed apart in the source", "description": "Solubility in water in presence of 0.1132 mol/l hydroxypropyl-beta-cyclodextrin"}, "physchem [14]": {"test": "physchem", "conditions": "water", "remark": "listed apart in the source", "description": "Solubility in water in presence of 0.0755 mol/l hydroxypropyl-beta-cyclodextrin"}, "physchem [15]": {"test": "physchem", "conditions": "citric acid-Na2HPO4 buffer, pH 4.12", "remark": "listed apart in the source", "description": "Solubility in citric acid-Na2HPO4 buffer at pH 4.12"}, "physchem [16]": {"test": "physchem", "conditions": "citric acid-Na2HPO4 buffer, pH 4.12", "remark": "listed apart in the source", "description": "Solubility in citric acid-Na2HPO4 buffer at pH 4.12 in presence of 0.0755 mol/l hydroxypropyl-beta-cyclodextrin"}, "physchem [17]": {"test": "physchem", "conditions": "citric acid-Na2HPO4 buffer, pH 4.12", "remark": "listed apart in the source", "description": "Solubility in citric acid-Na2HPO4 buffer at pH 4.12 in presence of 0.2 M hydroxypropyl-beta-cyclodextrin"}, "physchem [18]": {"test": "physchem", "conditions": "water", "remark": "listed apart in the source", "description": "Solubility in water in presence of 0.0302 mol/l hydroxypropyl-beta-cyclodextrin"}, "physchem [19]": {"test": "physchem", "conditions": "citric acid-Na2HPO4 buffer, pH 4.12", "remark": "listed apart in the source", "description": "Solubility in citric acid-Na2HPO4 buffer at pH 4.12 in presence of 0.0302 mol/l hydroxypropyl-beta-cyclodextrin"}, "physchem [20]": {"test": "physchem", "conditions": "NaOH-NaHCO3 buffer, pH 9.57", "remark": "listed apart in the source", "description": "Solubility in NaOH-NaHCO3 buffer at pH 9.57"}, "physchem [21]": {"test": "physchem", "conditions": "water", "remark": "listed apart in the source"}, "physchem [22]": {"test": "physchem", "conditions": "water", "remark": "listed apart in the source", "description": "Solubility in water in presence of 0.334 mol/l triethanolamine"}, "physchem [23]": {"test": "physchem", "conditions": "citric acid-Na2HPO4 buffer, pH 4.12", "remark": "listed apart in the source", "description": "Solubility in citric acid-Na2HPO4 buffer at pH 4.12 in presence of 0.1132 mol/l hydroxypropyl-beta-cyclodextrin"}, "physchem [24]": {"test": "physchem", "conditions": "citric acid-Na2HPO4 buffer, pH 4.12", "remark": "listed apart in the source", "description": "Solubility in citric acid-Na2HPO4 buffer at pH 4.12 in presence of 0.0604 mol/l hydroxypropyl-beta-cyclodextrin"}, "physchem [25]": {"test": "physchem", "conditions": "water", "remark": "listed apart in the source", "description": "Solubility in water in presence of 0.1001 mol/l triethanolamine"}}, "data": [{"smiles": "CC(=O)Nc1nnc(S(N)(=O)=O)s1", "note": "[ACETAZOLAMIDE]", "values": [{"measurement": "permeability", "setting": "[1]", "result": 4.1, "unit": "×10⁻⁶ cm/s"}, {"measurement": "solubility", "setting": "physchem [2]", "result": 3210, "unit": "µg/mL"}, {"measurement": "solubility", "setting": "physchem [3]", "result": 1880, "unit": "µg/mL"}, {"measurement": "solubility", "setting": "physchem [4]", "result": 5290, "unit": "µg/mL"}, {"measurement": "solubility", "setting": "physchem [5]", "result": 4510, "unit": "µg/mL"}, {"measurement": "solubility", "setting": "physchem [6]", "result": 7020, "unit": "µg/mL"}, {"measurement": "solubility", "setting": "physchem [7]", "result": 4970, "unit": "µg/mL"}, {"measurement": "solubility", "setting": "physchem [8]", "result": 5930, "unit": "µg/mL"}, {"measurement": "solubility", "setting": "physchem [9]", "result": 4770, "unit": "µg/mL"}, {"measurement": "solubility", "setting": "physchem [10]", "result": 3620, "unit": "µg/mL"}, {"measurement": "solubility", "setting": "physchem [11]", "result": 7020, "unit": "µg/mL"}, {"measurement": "solubility", "setting": "physchem [12]", "result": 1660, "unit": "µg/mL"}, {"measurement": "solubility", "setting": "physchem [13]", "result": 7030, "unit": "µg/mL"}, {"measurement": "solubility", "setting": "physchem [14]", "result": 5530, "unit": "µg/mL"}, {"measurement": "solubility", "setting": "physchem [15]", "result": 850, "unit": "µg/mL"}, {"measurement": "solubility", "setting": "physchem [16]", "result": 2960, "unit": "µg/mL"}, {"measurement": "solubility", "setting": "physchem [17]", "result": 4970, "unit": "µg/mL"}, {"measurement": "solubility", "setting": "physchem [18]", "result": 2440, "unit": "µg/mL"}, {"measurement": "solubility", "setting": "physchem [19]", "result": 1830, "unit": "µg/mL"}, {"measurement": "solubility", "setting": "physchem [20]", "result": 2770, "unit": "µg/mL"}, {"measurement": "solubility", "setting": "physchem [21]", "result": 810, "unit": "µg/mL"}, {"measurement": "solubility", "setting": "physchem [22]", "result": 3860, "unit": "µg/mL"}, {"measurement": "solubility", "setting": "physchem [23]", "result": 3780, "unit": "µg/mL"}, {"measurement": "solubility", "setting": "physchem [24]", "result": 2280, "unit": "µg/mL"}, {"measurement": "solubility", "setting": "physchem [25]", "result": 5910, "unit": "µg/mL"}]}]}
